“Also recorded” adds a separate entry of the source.
How the values were obtained:
Crm1 [1] = target: T1, Crm1 (Homo sapiens, UniProt O14980); assay: Inhibition of Crm1-dependent nuclear exportation in transfected H1299 cells; assay type: cell-based; conditions: HI299 cells
Experimental: The H1299 cells were seeded on the surface of six-well plates 24 hours before transfection. 5 μg of expression vector encoding for wild type HA-NPM, GFP-NPM-mutant A, or both, were transfected using the precipitation method with calcium-phosphate. After 24 hours, the cells were treated with 20 nM leptomycin B, a Crml specific inhibitor (Sigma, St. Louis, Mo., USA) for 8 hours or not treated, respectively. The cells then were fixed in 4% paraformaldehyde for the immunofluorescence study.
The DAPI staining was used to visualise nucleuses of H1299 cells transfected with the GFP-NPM-mutant A and with GFP-NPM wt. For Flag-HA constructs, the fixed cells were made permeable with 0.2% Triton-X 100 (10 minutes) followed by blocking with 10% anti-goat serum (30 minutes). Then primary anti-HA antibody was added (1:1000, Roche Indianapolis, Ind., USA) for 1 hour followed by incubation for 30 minutes with the secondary Alexa-568 antibody (1:1000, Molecular Probes, Oregon, USA). The images were taken using a digital camera with the Spot 4.09 program (Diagnostic Instruments, Sterling Heights, Mich., USA).

Crm1 [2] = target: T1, Crm1; assay: Nuclear re-localization of mutant NPM in OCI/AML3 cells; assay type: cell-based; conditions: OCI/AML3, mutation A, LMB 20 ng/ml
Crm1 [3] = target: T2, Crm1 (Mus musculus, UniProt Q6P5F9); assay: Inhibition of Crm1-dependent nuclear exportation in NIH-3T3 cells transfected with eGFP-NPM constructs; assay type: cell-based, murine; conditions: for sub-cellular localization of NPM mutant proteins after treatment (confocal microscopy): transfected NIH3T3 cells (HI299 or NIH3T3), leptomycin B 20 ng/ml
T2 construct: endogenous in cells; host or cells: NIH-3T3 cells, transfected only with eGFP-NPM reporter constructs
T2 sequence (Q6P5F9 whole entry): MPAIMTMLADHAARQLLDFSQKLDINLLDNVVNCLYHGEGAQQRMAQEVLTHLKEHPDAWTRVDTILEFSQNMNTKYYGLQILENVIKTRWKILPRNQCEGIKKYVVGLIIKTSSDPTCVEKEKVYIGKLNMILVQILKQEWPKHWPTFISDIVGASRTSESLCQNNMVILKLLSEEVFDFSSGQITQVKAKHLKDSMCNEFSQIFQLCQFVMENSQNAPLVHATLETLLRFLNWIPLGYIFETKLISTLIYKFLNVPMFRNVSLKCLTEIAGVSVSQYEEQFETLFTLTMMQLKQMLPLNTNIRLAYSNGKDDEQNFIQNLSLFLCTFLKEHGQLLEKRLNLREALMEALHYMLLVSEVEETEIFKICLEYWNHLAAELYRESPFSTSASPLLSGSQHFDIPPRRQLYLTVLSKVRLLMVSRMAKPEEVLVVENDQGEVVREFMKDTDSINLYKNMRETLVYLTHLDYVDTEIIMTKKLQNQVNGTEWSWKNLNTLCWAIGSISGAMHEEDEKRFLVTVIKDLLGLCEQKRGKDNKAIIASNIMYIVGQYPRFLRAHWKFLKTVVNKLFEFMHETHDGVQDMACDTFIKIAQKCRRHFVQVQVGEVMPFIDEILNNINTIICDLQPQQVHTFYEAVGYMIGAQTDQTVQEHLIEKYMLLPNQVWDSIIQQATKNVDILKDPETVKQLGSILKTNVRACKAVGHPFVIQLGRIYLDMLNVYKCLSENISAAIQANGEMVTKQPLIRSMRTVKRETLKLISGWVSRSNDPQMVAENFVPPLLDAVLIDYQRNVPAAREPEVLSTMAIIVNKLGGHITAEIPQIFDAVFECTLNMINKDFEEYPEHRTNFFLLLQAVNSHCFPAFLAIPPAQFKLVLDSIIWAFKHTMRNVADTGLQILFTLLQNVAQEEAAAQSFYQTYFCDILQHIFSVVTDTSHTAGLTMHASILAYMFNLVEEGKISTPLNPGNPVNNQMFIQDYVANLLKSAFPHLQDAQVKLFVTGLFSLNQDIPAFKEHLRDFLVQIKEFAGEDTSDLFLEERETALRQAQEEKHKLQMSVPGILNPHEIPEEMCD
Experimental: NIH-3T3 cells were transfected using Lipofectamin 2000 (Invitrogen Carlsbad, Calif., USA) following the manufacturer instructions. After 24 hours, the cells grown on the slide were incubated with cycloeximide (Merck Biosciences Ltd, Nottingham UK) 10 micro grams/ml (30 minutes) and leptomycin B (Merck Biosciences Ltd, Nottingham UK) 20 ng/ml (5 hours), or other Crm1 inhibitors such as ratjadons A and C (Alexis Biochemicals, Carlsbad, Calif., USA) 20 ng/ml (5 hours).
The cells were fixed in 4% paraformaldehyde (10 minutes) for immunofluorescence and confocal microscope analysis.
For “time course” experiments, transfected cells were transferred inside an Attofluor chamber (Molecular Probes, Eugene, Oreg., USA) and were observed using a MRC-1024 confocal apparatus (Biorad Cambridge, UK) assembled on an Olympus IMT-2 microscope. The images of a single section were recorded before and after the addition of leptomicin B, at 60 second intervals, using the time-series function of Laser-Sharp program (BioRad). The excitation wavelength was 488 nm and images were detected using a filter from 505 to 550 nm on the PMT2.
The images were processed and analysed using the well known ImageJ program (Rasband WS, Image J, U.S. National Institutes of Health, Bethesda, Md., USA, http://rsb.info.nih.gov/ij/, 1997-2005).
For western-blotting analyses of the sub-cellular distribution of GFP-NPM mutant A protein, NIH-3T3 cells transfected with GFP vector or with GFP-NPM mutant A, as described above, were incubated with leptomicin B 20 ng/ml (or with methanol as control) without cycloeximide for 3 or 6 hours. Then cells were harvested, washed with PBS and lysed in hypotonic buffer according to the method of Schreiber et al. (1989). The supernatant was preserved as cytoplasmic fraction. The pellet, containing nuclei, was again washed with the hypotonic buffer, then solubilised in a hypertonic buffer and boiled in a solution containing SDS before loading.
Equivalent dilutions (with the same cell number) of cytoplasmic and nuclear fractions were loaded, blotted on nitrocellulose and incubated with an anti-GFP monoclonal antibody (Roche, Indianapolis, Ind., USA) for Western-blot analysis of the distribution of GFP-NPM mutant A.

Crm1 [4] = target: T1, Crm1; assay: Nuclear re-localization of NPM in leukaemic cells of NPMc+ AML patients (mutation A); assay type: cell-based; conditions: NPMc+ AML patient cells, leptomycin B 20 ng/ml
Experimental: Cells deriving from two patients with NPMc+AML (carrying the mutation A) and from OCI/AML3 cellular line were harvested in medium (10^6 cell/ml in 24-well plates) and incubated at 37° C. with 5% CO2 […]. After the incubation overnight with leptomycin B (20 ng/ml), the cells were washed with PBS and centrifuged. The cell pellet was fixed in B5 and paraffin for the immunostaining.
The NPM coloration of paraffin embedded sections of AML cases containing the mutation A was carried out with monoclonal anti-NPM antibodies followed by a Alexa 488 conjugated secondary (Molecular Probes, Oregon, USA); the nuclei were contra-stained with propidium iodide. The images were taken with a confocal microscope Zeiss LSM 510 (Carl Zeiss, Jena, Del.), using laser excitation wavelengths at 488 nm (for ALexa 488), 543 nm (for Texas Red and the propidium iodide) and 633 nm (for TO-PRO-3), respectively. The laser intensity tuning, diameter of pinholes, and configuration of the light detection were set to achieve the best signal/noise ratio and avoid fluorescence crossover. The images were then transferred to a SGI Octane workstation (Silicon graphics, Mountain View, Calif., USA) for further elaboration; 3D reconstruction was made with the shade or iso-surface method using the Imaris program (Bitplane, Zurich, CH).

[5] = NIH-3T3 cells, with and without LMB

T1 sequence (O14980 whole entry): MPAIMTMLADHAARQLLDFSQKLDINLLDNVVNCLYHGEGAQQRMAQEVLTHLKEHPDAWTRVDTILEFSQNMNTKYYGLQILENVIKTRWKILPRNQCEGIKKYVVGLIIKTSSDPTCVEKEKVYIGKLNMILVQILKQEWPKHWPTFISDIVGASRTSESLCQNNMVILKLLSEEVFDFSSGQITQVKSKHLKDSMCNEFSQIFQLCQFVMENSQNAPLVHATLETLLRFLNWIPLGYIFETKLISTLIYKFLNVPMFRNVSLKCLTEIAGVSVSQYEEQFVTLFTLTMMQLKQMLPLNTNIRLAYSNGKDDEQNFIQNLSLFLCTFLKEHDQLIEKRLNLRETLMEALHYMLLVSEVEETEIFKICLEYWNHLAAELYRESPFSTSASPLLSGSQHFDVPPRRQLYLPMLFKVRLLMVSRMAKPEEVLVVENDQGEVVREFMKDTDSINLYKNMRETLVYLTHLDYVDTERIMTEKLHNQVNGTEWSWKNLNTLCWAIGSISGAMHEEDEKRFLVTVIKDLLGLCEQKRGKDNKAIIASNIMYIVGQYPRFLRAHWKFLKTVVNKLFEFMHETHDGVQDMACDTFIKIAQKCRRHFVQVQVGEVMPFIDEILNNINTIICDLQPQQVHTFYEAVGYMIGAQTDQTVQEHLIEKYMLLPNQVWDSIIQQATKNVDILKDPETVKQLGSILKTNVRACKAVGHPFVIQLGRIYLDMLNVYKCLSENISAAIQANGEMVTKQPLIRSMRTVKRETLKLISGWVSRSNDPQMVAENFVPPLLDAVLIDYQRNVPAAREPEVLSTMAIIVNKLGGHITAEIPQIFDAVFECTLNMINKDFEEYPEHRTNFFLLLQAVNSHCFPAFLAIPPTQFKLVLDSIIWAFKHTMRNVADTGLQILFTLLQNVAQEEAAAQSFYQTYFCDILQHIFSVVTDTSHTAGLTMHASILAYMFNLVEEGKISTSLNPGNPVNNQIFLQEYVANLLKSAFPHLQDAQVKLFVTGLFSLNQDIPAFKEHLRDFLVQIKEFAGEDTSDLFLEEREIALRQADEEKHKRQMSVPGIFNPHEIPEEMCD

Q: What does the source list for `CCC(=C/[C@H](C)C/C=C/C(C)=C/[C@@H](C)C(=O)[C@@H](C)[C@H](O)[C@@H](C)C/C(C)=C/C(=O)O)/C=C/[C@@H]1OC(=O)C=C[C@@H]1C` [Leptomycin B, leptomycin B]?
A: localization of eGFP NPM mutants A to D (Crm1 [1]; in the presence of LMB 20 nM, 8 hours): completely replaced in the nucleus in the presence of LMB; localization of eGFP-NPMwt (Crm1 [1]; with and without LMB): localized in nucleoli both in the presence and in the absence of LMB; NPM localization in OCI/AML3 cells (376 staining) (Crm1 [2]): re-localization of NPM in the nucleoplasm; re-localization of type E NPM mutant (tryptophan 288 kept) (Crm1 [3]; NIH-3T3 cells, after Leptomicin B): not only at nucleoplasma but also at nucleolus level; mutant type A re-localized in nucleus (Crm1 [3]; NIH-3T3 cells, eGFP-NPMmutA, 20 minutes after LMB): About 50%; time for the whole re-localization process to be completed (Crm1 [3]; NIH-3T3 cells, eGFP-NPMmutA, LMB): 1 h; Western blot sub-cellular distribution of GFP-NPM mutant A (Crm1 [3]; NIH-3T3 cells, leptomicin B 20 ng/ml, 3 or 6 hours, no cycloeximide): progressively accumulates in the pellet containing nucleuses; eGFP-NPMmutA fluorescence in regions of interest over time (Crm1 [3]; NIH-3T3 cells, time course after addition of LMB): reduction of fluorescence in cytoplasm and Golgi area and concomitant fluorescence increase in nucleoplasm; localization of GFP-NPMwt (Crm1 [3]; [5]): localizes in the nucleoli both in the presence and in the absence of LMB; localization of NPM mut A no-NES (Crm1 [3]; [5]): localized in the nucleoplasm both in presence and in absence of LMB; localization of mutant A with both tryptophans re-inserted (C288W+A290W) (Crm1 [3]; NIH-3T3 cells, with and without Leptomicin B): locates completely in nucleoli, independently from the presence of Leptomicin B; sub-cellular localization of NPM mutant proteins after treatment (confocal microscopy) (Crm1 [3]; listed as LMB): repositions in nucleoplasm; sub-cellular localization of NPM mutant proteins after treatment (confocal microscopy) (Crm1 [3]; listed as Leptomicin B): re-localized from the cytoplasmic to the nuclear compartment (nucleoplasm); also recorded: re-localized in the nucleus and, specifically, in nucleoplasm; NPM localization in purified leukaemic cells (376 staining, confocal) (Crm1 [4]): NPM is in nucleus again

From patent US8501924B2, “Nucleophosmin protein (NPM) mutants, corresponding gene sequences and uses thereof” (priority 2004, dated 2013)
